From patent US7030126B2, “Use of polyamine analogs for amyotrophic lateral sclerosis” (ALS Therapy Development Foundation, Inc., priority 2001, dated 2006)
Like-named read-outs stand apart in the source and are kept apart here.

How the values were obtained:
[1] = test system: cellular concentrations of putrescine, spermidine and spermine; settings: cited from earlier work
[2] = test system: SOD1 G93A mice; assay: DENSPM in SOD-1 (G93A) mouse model of ALS: survival and neurological score; format: in vivo; settings: female mice
From the text: (§1) Survival in the mouse is copy dependent.
Results are shown in FIGS. 12 and 13 and described below.

[3] = test system: patients with advanced non-small cell lung cancer; settings: Phase I; cited from earlier work
[4] = test system: SOD1 G93A mice
From the text: (vi) Neurological Scoring: Neurological score of each limb was monitored and recorded according to a defined 4-point scale defined below: […]

[5] = test system: SOD1 G93A mice; assay: Continuous dosing of DFMO in SOD-1 (G93A) mouse model of ALS: survival and neurological score; format: in vivo
Procedure: as §1
(§2) Controls animals were given water as vehicle.
During this study, DFMO was delivered chronically at a dose of 3200 mg/Kg/day in drinking water […] without any drug holiday until death according to the methods described in Example 1. Results are shown in FIGS. 4–9 and described below.

[6] = test system: SOD1 G93A mice; assay: Ongoing IP injection study of DFMO in SOD1 G93A mice; format: in vivo, mouse; settings: 3200 mg/kg
From the text: Studies are currently underway to analyze polyamines in male vs. female mSOD1 mice and wild-type mice. While positive effects are seen in male mice, the effect is less reliable at current doses. Differences in polyamine synthesis and regulation exist between the sexes and may account for the different observed effects. […] Higher plasma concentration of DFMO can be achieved by systemic delivery as opposed to oral delivery.

[7] = test system: SOD1 G93A mice; assay: Discontinuous dosing of DFMO in SOD-1 (G93A) mouse model of ALS: survival and neurological score; format: in vivo
From the text: as §1, §2
Results are shown in FIGS. 2 and 3 and described below.

[8] = 24 mg/kg/day IP twice daily till death, FIG. 12

CCNCCCNCCCNCCCNCC [DENSPM, N(1),N(11)-diethylnorspermine]
cellular concentrations of putrescine, spermidine and spermine [1]: reduce | onset of disease [2, 8]: delays the onset of disease | survival [2, 8]: extends the survival | neurological score analysis, effect ([2]; 24 mg/kg/day IP twice daily, FIG. 13): protective | toxicity in patients [3]: minimal toxicity

NC(=O)NO [hydroxyurea]
onset of ALS disease ([4]; 250 mg/Kg/day IP once daily, day 50 to day 110): delays the onset of ALS disease | life span / survival ([4]; female mice, 250 mg/Kg/day IP once daily, day 50 to day 110, FIG. 10): extended the life span | neurological score analysis, effect ([4]; female mice, 250 mg/Kg/day IP, FIG. 11): protective

NCCCC(N)(C(=O)O)C(F)F (racemic) [DFMO, 2-(Difuoromethyl)-DL-ornithine]
onset of disease ([5]; 3200 mg/Kg/day in drinking water, no drug holiday): delays the onset of disease | life span / survival ([5]; 3200 mg/Kg/day in drinking water, no drug holiday, FIGS. 4, 6 and 8): extended the life span | neurological score analysis, effect ([5]; combined male and female, continuous delivery, FIG. 5): protective | effect ([5]; female mice, continuous delivery): 11.48% | neurological score analysis, effect ([5]; female mice, continuous delivery, FIG. 9): protective | total combined effect ([5]; male and female combined, continuous delivery, Cox proportional hazard, litter effect as frailty term, p=0.02): 9.69% | effect ([5]; male mice, continuous delivery): 8.21% | neurological score analysis, effect ([5]; male mice, continuous delivery, FIG. 7): protective | trend in male mice [6]: positive male trend | onset of disease ([7]; 3200 mg/Kg/day in drinking water, 21 days on, 7 day drug holiday): delays the onset of disease | survival ([7]; 3200 mg/Kg/day in drinking water, 21 days on, 7 day drug holiday, FIG. 2): extends the survival | neurological score analysis, effect ([7]; combined male and female results, discontinuous delivery): No effect | neurological score analysis, effect ([7]; female mice, during drug delivery period, discontinuous delivery, FIG. 3): protective | deaths of animals in the treatment group that occurred during the drug holiday or a few days immediately succeeding the holiday ([7]; female mice, 3200 mg/Kg/day in drinking water, 21 days on, 7 day drug holiday, FIG. 2): 70% | total female effect ([7]; female mice, discontinuous delivery, FIG. 3): 3.5% | neurological score analysis, effect ([7]; male mice, discontinuous delivery): No effect
